Source: patent US20080269155A1, “REMEDY OR PREVENTIVE FOR KIDNEY DISEASE AND METHOD OF DIAGNOSING KIDNEY DISEASE” (TORAY INDUSTRIES INC., priority 2002, published 2008)

Legend:
nephritis rat models = assay: Nephritis rat model induced by anti-glomerular basement membrane antibody: kidney function markers and kidney pathology; format: in vivo; settings: for urine protein: 24-hour urine on 7th day from induction
[1] = tested on: casein kinase 2 α subunit; assay: Western blot of casein kinase 2 α subunit protein in kidney tissue of nephritis rats given oligonucleotides; format: in vivo, rat; settings: 12 μg/day into kidney tissue by Alzet pump from one day before induction to 7th day
Procedure: This example was carried out for studying the effect of administration of an antisense oligonucleotide against casein kinase 2 α subunit, so as to confirm the utility of the present invention. To rats (Wistar-Kyoto strain, male, body weight 190 to 210 g), rabbit anti-glomerular basement membrane antibody was intravenously administered (0.3 ml/kg) to induce nephritis. […] The nucleic acid molecules of the oligonucleotides were S-oligonucleotides containing phosphorothioate moieties, and a cationic liquid (Polyplus transfection) was used for making the uptake of the oligonucleotide easier. More particularly, the groups used in the experiment were normal group (normal rats to which the antisense oligonucleotide against casein kinase 2 α subunit and the antisense oligonucleotide were not administered, n=8), nephritis control group (nephritis rats to which the antisense oligonucleotide against casein kinase 2 α subunit and the antisense oligonucleotide were not administered, n=8), nephritis+antisense oligonucleotide against casein kinase 2 α subunit-administered group (group of the present invention, nephritis rats to which the antisense oligonucleotide against casein kinase 2 α subunit was administered, n=4), and nephritis+sense oligonucleotide of casein kinase 2 α subunit-administered group (negative control group, nephritis rats to which the sense oligonucleotide of casein kinase 2 α subunit was administered), totally four groups. On the 7th day from the induction, all rats were placed in metabolic cages, and urine excreted during 24 hours was collected and the amount of the urine was measured. The urine was then centrifuged at 3000 rpm for 15 minutes, and the urine protein in the supernatant was measured. Further, after the collection of urine, the kidneys were isolated, proteins were extracted from each kidney tissue by a conventional method, and the proteins (1 mg/ml, 20 μl) were electrophoresed (PAGERUN, ATTO, 40 mA, 84 min) on 12.5% polyacrylamide gel (PAGEL, ATTO). The electrophoresed proteins were blotted (100V, 90 min) on a PVDF membrane (Millipore). The membrane was blocked (Blocking Ace, Dainippon Pharmaceutical, 4° C., 1 hour), and washed three times (10 min) with PBS containing Tween 20. Then the membrane was incubated (at room temperature for 1 hour) with an anti-casein kinase 2 α subunit (originated from goat, Santa cruz, 100-fold diluted) as the primary antibody. […] After the incubation, the amounts of the casein kinase 2 α subunit protein were measured, respectively, using ECL reagent (Amersham). This measurement was carried out by taking photographs of the detected casein kinase 2 so as to make image files of the amount of the casein kinase 2 protein, and digitalizating the image file using a software NIH Image on Macintosh.

[2] = oligonucleotide 12 μg/day into kidney tissue, FIG. 2

## O=c1cc(-c2ccc(O)cc2)oc2cc(O)cc(O)c12 [apigenin]
Nephritis rat models; apigenin 20 mg/l kg body weight intraperitoneally once a day, FIG. 4
  urine protein: significantly decreased

## 5′-GTAATCATCTTGATTACCCCA-3′ (chemistry not given here)
[1]; no-oligonucleotide kidney = 1
  Protein Amount Ratio of Casein Kinase 2 α Subunit: prominently decreased
[1]; no-oligonucleotide kidney = 1, listed as Antisense Oligonucleotide
  Protein Amount Ratio of Casein Kinase 2 α Subunit: 0.45
Nephritis rat models; [2]
  urine protein: significantly decreased

## Cc1cc(O)c2c(c1)C(=O)c1cc(O)cc(O)c1C2=O [3-methyl-1,6,8-trihydroxyanthraquinone]
Nephritis rat models; 20 mg/l kg body weight intraperitoneally once a day, 14th day from induction, FIG. 6
  blood creatinine level: almost normalized
Nephritis rat models; 20 mg/l kg body weight intraperitoneally once a day, FIG. 5
  urine protein: significantly decreased
Nephritis rat models; 20 mg/l kg body weight intraperitoneally once a day, hematoxylin-eosin-stained specimens
  pathological finding of the kidney tissue: improvements in the glomeruli and in the renal tubule interstitium were observed

## 5′-TGGGGTATCAATCAAGATGATTAC-3′ (chemistry not given here) [negative control]
[1]; no-oligonucleotide kidney = 1
  Protein Amount Ratio of Casein Kinase 2 α Subunit: did not decrease
[1]; no-oligonucleotide kidney = 1, listed as Sense Oligonucleotide
  Protein Amount Ratio of Casein Kinase 2 α Subunit: 1.07
Nephritis rat models; [2]
  urine protein: did not significantly decrease
